Data on two molecules can be found in patent US6727226B2 (priority 2000, dated 2004).

The conditions of experiment [1]: guinea pig, in vivo.
In experiment [2] the test system is neurotensin receptors. The conditions noted are these: in vivo; cited from earlier work.

In the case of `CCCCN1CCCCC1C(=O)Nc1c(C)cccc1C` (centres unmarked) [bupivacaine], the “duration of local anesthesia” value in experiment [1] is listed as “slightly longer duration thatn lidocaine”.

Consider contulakin-G, for which the “potency in inhibiting pain relative to neurotensin” value in experiment [2] is listed as “significantly more potent than neurotensin”.
